From publication PMC6366418, “Evaluation of a flavonoids library for inhibition of pancreatic α-amylase towards a structure–activity relationship” (Journal of Enzyme Inhibition and Medicinal Chemistry, 2019)
Entries after “also recorded” stand apart in the source; their conditions may differ. Where two headings read alike, the source gives them in different places. Values belong to the compound of their own block, whether it stands above or below them.

How the values were obtained:
[1] = biological target: T1, α-amylase from porcine pancreas (Sus scrofa, UniProt P00690); assay: Inhibitory kinetics of α-amylase (nonlinear regression, Excel Solver); assay type: biochemical; conditions: for Type of inhibition: CNPG3 0.25, 0.5 and 1 mM, best model by F test and AIC; for Vmax: best model; for V max (Solver fit): rate axis DA/min
T1 construct: α-Amylase from porcine pancreas; purchased Sigma-Aldrich Co. LLC (St. Louis, MO); host or cells: porcine pancreas (tissue-derived commercial preparation)
T1 sequence (P00690 16-511): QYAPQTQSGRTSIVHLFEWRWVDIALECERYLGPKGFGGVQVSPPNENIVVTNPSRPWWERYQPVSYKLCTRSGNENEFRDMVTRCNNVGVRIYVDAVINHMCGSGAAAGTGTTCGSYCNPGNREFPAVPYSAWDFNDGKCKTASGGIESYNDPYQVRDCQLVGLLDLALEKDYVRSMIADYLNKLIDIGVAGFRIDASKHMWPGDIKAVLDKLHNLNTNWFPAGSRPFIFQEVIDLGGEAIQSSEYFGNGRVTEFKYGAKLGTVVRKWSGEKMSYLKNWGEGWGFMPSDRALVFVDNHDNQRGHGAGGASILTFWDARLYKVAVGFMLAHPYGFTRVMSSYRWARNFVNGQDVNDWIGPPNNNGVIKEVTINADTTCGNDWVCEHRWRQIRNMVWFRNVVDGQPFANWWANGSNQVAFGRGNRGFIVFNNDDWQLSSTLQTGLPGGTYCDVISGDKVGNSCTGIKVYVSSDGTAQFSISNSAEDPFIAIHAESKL

α-amylase = tested on: α-amylase; design: method as in Kim et al.[55] and Yoon and Robyt,[52]; conditions: ref Kim et al.[55] and Yoon and Robyt,[52]; cited from earlier work
[2] = biological target: T2, porcine pancreatic α-amylase (Sus scrofa, UniProt P00690); assay: In vitro pancreatic α-amylase inhibition assay (CNPG3 substrate, 405 nm); assay type: biochemical; conditions: for IC50: enzyme 0.2 U/mL, CNPG3 0.5 mM, pH 6.8, 37 °C; for Inhibition of α-amylase activity (in words): up to the highest tested concentration (200 µM);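 for all read-outs here: enzyme rate taken from the absorbance slope between 5 and 30 min of CNPG3 hydrolysis, inhibition derived from these rates, at least three independent experiments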
T2 construct: α-Amylase from porcine pancreas; purchased Sigma-Aldrich Co. LLC (St. Louis, MO); host or cells: porcine pancreas (tissue-derived commercial preparation)
T2 sequence (P00690 16-511): T1 sequence (P00690 16-511)

[3] = biological target: T2, porcine pancreatic α-amylase; design: method as in Tadera et al.,[21]; conditions: highest tested concentration of 0.5 mM; ref Tadera et al.,[21]; cited from earlier work
[4] = 200 µM, mean ± SEM, read-out: Inhibition (%) at the highest tested concentration
[5] = competitive inhibition constant, ± SD (jackknife), read-out: Kic
[6] = supplement, competitive inhibition model
[7] = supplement, competitive inhibition model, read-out: K ic (Solver fit)

IC50 ([2]; mean ± SEM): 118 ± 7 µM
Compound: O=c1c(O)c(-c2ccc(O)cc2)oc2cc(O)cc(O)c12 [D6, Kaempferol]

inhibition at 200 µM [2, 4]: < 20%
Inhibition of α-amylase activity (in words) [2]: not able to inhibit
Compound: O=C1C[C@@H](c2ccc(O)cc2)Oc2cc(O)cc(O)c21 [E1, Naringenin]
Inhibition of porcine pancreatic α-amylase activity (in words) [3]: not able to inhibit

Decrease of inhibitory activity / increase of IC50 compared with D11 ([2]; fold, relative to D11): two-fold
IC50 ([2]; mean ± SEM): 78 ± 3 µM
Compound: O=c1cc(-c2ccc(O)c(O)c2)oc2cc(O)cc(O)c12 [D7, Luteolin]

inhibition at 200 µM [2, 4]: < 20%
Inhibition of α-amylase activity (in words) [2]: not able to inhibit
Compound: O=C1c2c(O)cc(O)cc2OC(c2ccc(O)c(O)c2)C1O (stereo not drawn) [E3, Taxifolin]

inhibition at 200 µM [2, 4]: < 20%
Compound: O=c1c(O)c(-c2ccccc2)oc2cc(O)cc(O)c12 [D2, Galangin]

Inhibition (%) at the highest tested concentration ([2]; 200 µM, mean ± SEM): 23 ± 1 %^200µM*
Compound: Morin [D10]

inhibition at 200 µM [2, 4]: 22 ± 3%
Compound: O=c1cc(-c2ccccc2)oc2cc(O)cc(O)c12 [D1, Chrysin]

IC50 ([2]; mean ± SEM): 107 ± 6 µM
Compound: O=c1c(O)c(-c2cc(O)c(O)c(O)c2)oc2cc(O)cc(O)c12 [D9, Myricetin]

inhibition at 200 µM [2, 4]: 33 ± 3%
Compound: COc1ccc(-c2cc(=O)c3c(O)cc(O)cc3o2)cc1OC [D18]

IC50 ([2]; mean ± SEM): ~200 µM
Compound: O=c1cc(-c2cccc(O)c2)oc2cc(O)cc(O)c12 [D4]

inhibition at 200 µM [2, 4]: < 20%
Inhibition of α-amylase activity (in words) [2]: no activity was found
Compound: C[C@@H]1O[C@@H](OC[C@H]2O[C@@H](Oc3c(-c4ccc(O)c(O)c4)oc4cc(O)cc(O)c4c3=O)[C@H](O)[C@@H](O)[C@@H]2O)[C@H](O)[C@H](O)[C@H]1O [D19, Rutin]

Further lines, the compound ahead of its results:

Compound: C[C@H]1O[C@H](O[C@H]2[C@H](O)[C@@H](O)[C@@H](O[C@H]3[C@H](O)[C@@H](O)C(O)O[C@@H]3CO)O[C@@H]2CO)[C@H](O)[C@@H](O)[C@@H]1N[C@H]1C=C(CO)[C@@H](O)[C@H](O)[C@H]1O (stereo partly drawn) [Acarbose, reference compound]
Type of inhibition [1]: Mixed
Type of inhibition ([1]; listed as acarbose): mixed-type inhibitor; also recorded: mixed-type inhibition
Vmax ([1]; ± SD (jackknife)): 12.0 ± 0.9 µmol/min
V max (Solver fit) ([1]; supplement, mixed inhibition model): 39,76745004
Type of inhibition (α-amylase): mixed type inhibitor

Compound: O=c1cc(-c2ccc(O)c(O)c2)oc2cc(O)ccc12 [C6]
IC50 ([2]; mean ± SEM): 131 ± 1 µM

Compound: O=c1cc(-c2cccc(O)c2)oc2cc(O)ccc12 [C2]
inhibition at 200 µM [2, 4]: 28 ± 3%

Compound: COc1cccc(-c2oc3cc(OC)ccc3c(=O)c2O)c1 [C7]
inhibition at 200 µM [2, 4]: < 20%
Inhibition of α-amylase activity (in words) [2]: remained unchanged; also recorded: no inhibitory activity

Compound: O=c1cc(-c2cccc(O)c2)oc2ccccc12 [A2]
inhibition at 200 µM [2, 4]: < 20%

Compound: O=c1cc(-c2ccccc2)oc2ccccc12 [A1, Flavone]
inhibition at 200 µM [2, 4]: < 20%

Compound: O=c1cc(-c2ccccc2)oc2cccc(O)c12 [B1]
inhibition at 200 µM [2, 4]: < 2%

Compound: Acacetin [D17]
Inhibition (%) at the highest tested concentration ([2]; 200 µM, mean ± SEM): <20%^200 µM*

Compound: O=c1cc(-c2ccc(O)cc2)oc2cc(O)ccc12 [C3]
inhibition at 200 µM [2, 4]: 36 ± 3%
Inhibition of α-amylase activity (in words) [2]: lack of inhibitory activity

Compound: O=c1cc(-c2ccc(O)c(O)c2)oc2ccccc12 [A4]
inhibition at 200 µM [2, 4]: 46 ± 2%

Compound: O=c1c(O)c(-c2ccc(O)cc2)oc2cc(O)ccc12 [C5]
IC50 ([2]; mean ± SEM): 59 ± 4 µM
Type of inhibition [1]: competitive inhibitors; also recorded: competitive inhibition
Vmax ([1]; ± SD (jackknife)): 10.5 ± 0.9 µmol/min
Ki [1, 5]: 71 ± 7 µM
K m (Solver fit) [1, 6]: 0,9963 mM
V max (Solver fit) [1, 6]: 35,186
Ki [1, 7]: 71.4 µM

Compound: O=c1cc(-c2ccc(O)cc2)oc2cccc(O)c12 [B3]
inhibition at 200 µM [2, 4]: < 20%

Compound: COc1ccc(-c2oc3ccccc3c(=O)c2O)cc1OC [A6]
inhibition at 200 µM [2, 4]: < 20%

Compound: COc1ccc(-c2oc3cc(OC)ccc3c(=O)c2O)cc1 [C8]
inhibition at 100 µM ([2]; 100 µM, mean ± SEM, read-out: Inhibition (%) at the highest tested concentration): < 20%
Inhibition of α-amylase activity (in words) [2]: remained unchanged; also recorded: no inhibitory activity

Compound: O=c1c(O)c(-c2cccc(O)c2)oc2cc(O)ccc12 [C4]
inhibition at 200 µM [2, 4]: 34 ± 3%
Inhibition of α-amylase activity (in words) [2]: low activity

Compound: O=c1cc(-c2ccc(O)cc2)oc2ccccc12 [A3]
inhibition at 200 µM [2, 4]: < 20%

Compound: O=C1C[C@@H](c2ccc(O)c(O)c2)Oc2cc(O)cc(O)c21 [E2, Eriodictyol]
inhibition at 200 µM [2, 4]: < 20%
Inhibition of α-amylase activity (in words) [2]: not able to inhibit

Compound: O=c1cc(-c2ccc(O)c(O)c2)oc2cccc(O)c12 [B4]
IC50 ([2]; mean ± SEM): 148 ± 5 µM
Type of inhibition [1]: competitive inhibitors; also recorded: competitive inhibition
Vmax ([1]; ± SD (jackknife)): 12.0 ± 0.6 µmol/min
Ki [1, 5]: 132 ± 15 µM
V max (Solver fit) [1, 6]: 40,026555
Ki [1, 7]: 132 µM

Compound: O=c1c(O)c(-c2ccc(O)c(O)c2)oc2ccccc12 [A5]
inhibition at 200 µM [2, 4]: 31 ± 3%

Compound: O=c1cc(-c2cccc(O)c2)oc2cccc(O)c12 [B2]
inhibition at 200 µM [2, 4]: < 20%

Compound: O=c1cc(-c2ccccc2)oc2cc(O)ccc12 [C1]
inhibition at 200 µM ([2]; read-out: Inhibition (%) at the highest tested concentration): < 20%
